Experimental data from patent publication US10357537B2, “Cyclotides as immunosuppressive agents” (priority 2011, dated 2019).
Bridge positions count the residues as written; N and C are the ends. Peptide text beside a SMILES is read from it.

Assays:
[1] = tested on: TNF-alpha production of activated PBMCs; assay: TNF-alpha secretion of PBMC, ELISA-based FACS; format: cell-based, human; conditions: 24 h + 6 h PMA/ionomycin; T20K 4 μM, CsA 5 μg/mL
Description: FIG. 15. […] Untreated cells were used as control. Following 24 h or 36 h of cultivation, the cells were restimulated with PMA/Ionomycin for further 6 hour. […] The data are presented as mean and standard deviation (SD) of three independent experiments.
Activated cells were resuspended in 50 μl of medium, transferred into a 96-well plate and treated with 10 μg/ml PHA-L. After incubation for 24 h cells were re-stimulated with PMA (50 ng/ml) und ionomycin (500 ng/ml) for 6 h. Next, the cells were transferred into Eppendorf tubes, centrifuged (5 min, 3000 RPM, 20° C.) und 50 μl of the supernatant was again transferred into new tubes and stored at −20° C. Production of cytokines was measured and quantified using the FlowCytomix™ kit according to manufacturer's instructions.
Therefore it is of interest to determine whether cyclotides only have anti-proliferative effects or also affect the effector function of T-lymphocytes, which would directly relate to changes in the IFN-gamma and TNF-alpha production. Therefore, the production of both cytokines of cyclotide-treated, activated PBMCs at an early time point after PBMC activation was tested.

human primary T-cells = assay: Ca2+ release, Fura-2; format: cell-based; conditions: T20K 4 μM
Description: FIG. 17. Ca^2+ release in human Jurkat and T-cells. Jurkat cells (A) and T-cells (B) 1×10^6 were loaded with 1 μM Fura-2 and 0.02% Puronic F-127 for 30 minutes at 37° C. Cells were centrifuged for 5 minutes at 1200 rpm and resuspended in media [RPMI 1640 with 10% FCS, penicillin (100 U/mL) and streptomycin ([…])]. 100 μL of cell suspension were transferred to a black 96-well plate with a clear flat-bottom. Briefly before analysis the fluorometer Synergy H4 (BioTek) was tempered to 37° C. The fluorescence time course was then measured with: extinction 340/380 nm and emission 510 nm in 30 seconds intervals, continuously shaking. Ca^2+ influx was initiated by adding compounds to the cells (illustrated by the arrow). To receive maximum Ca^2+ release cells were stimulated with PMA (50 ng/mL) and Ionomycin (500 ng/mL) and T-cells additionally with PHA-L (10 μg/mL). For lowest Ca^2+ levels, cells remained untreated.
Jurkat cells T-cells were treated as described for FIG. 17, supra.

## CC(C)C[C@@H]1NC(=O)CNC(=O)[C@H](CC(N)=O)NC(=O)[C@H](CCCNC(=N)N)NC(=O)[C@H]([C@@H](C)O)NC(=O)[C@@H]2CSSC[C@@H]3NC(=O)[C@H]([C@@H](C)O)NC(=O)CNC(=O)CNC(=O)[C@H](C(C)C)NC(=O)[C@@H]4CSSC[C@H](NC(=O)[C@H](CCCCN)NC(=O)[C@H](CSSC[C@H](NC(=O)[C@H](C(C)C)NC(=O)[C@@H]5CCCN5C1=O)C(=O)NCC(=O)N[C@@H](CCC(=O)O)C(=O)N[C@@H]([C@@H](C)O)C(=O)N4)NC(=O)CNC(=O)[C@@H]1CCCN1C(=O)[C@H]([C@@H](C)O)NC(=O)[C@H](CC(N)=O)NC3=O)C(=O)N[C@@H](CO)C(=O)N[C@@H](Cc1c[nH]c3ccccc13)C(=O)N1CCC[C@H]1C(=O)N[C@@H](C(C)C)C(=O)N2 [Kalata T20K] (cyclo(CGETCVGGTCNTPGCKCSWPVCTRNGLPV); disulfide 1-15, 5-17, 10-22 (inferred); ring closure inferred)
[1]
  TNF-alpha expression as compared to the control, 24 h: 23%±10.6
Human primary T-cells
  Ca2+ release in human primary T-cells: increasing Ca^2+ release
